From US20170114049A1, “2,5-DISUBSTITUTED CYCLOPENTANE CARBOXYLIC ACIDS FOR THE TREATMENT OF RESPIRATORY TRACT DISEASES” (BAYER PHARMA AKTIENGESELLSCHAFT, priority 2014, published 2017)
Values after ≈ are worked out from the molar mass of the structure shown.

Columns and labels:
MMP-1 = target: T1, MMP-1 (Homo sapiens, UniProt P03956); assay: In vitro MMP-1 inhibition test; assay type: biochemical
T1 construct: purchased R&D Systems 901-MP
T1 sequence (P03956 100-469): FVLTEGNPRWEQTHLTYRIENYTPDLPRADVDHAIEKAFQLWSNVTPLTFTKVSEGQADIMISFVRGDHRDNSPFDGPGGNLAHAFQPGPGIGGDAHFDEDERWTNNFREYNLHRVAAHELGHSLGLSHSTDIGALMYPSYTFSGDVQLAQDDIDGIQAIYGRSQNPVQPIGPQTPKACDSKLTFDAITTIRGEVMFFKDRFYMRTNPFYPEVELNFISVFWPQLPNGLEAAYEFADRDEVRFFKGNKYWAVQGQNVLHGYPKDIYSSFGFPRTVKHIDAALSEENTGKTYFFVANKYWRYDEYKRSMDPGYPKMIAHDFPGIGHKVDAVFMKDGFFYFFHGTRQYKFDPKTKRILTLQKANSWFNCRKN
Excerpt: (§1) The MMP-mediated amidolytic cleavage of a suitable peptide substrate leads to an increase in fluorescent light here too. The signal intensity of the fluorescent light is directly proportional to the enzyme activity. The active concentration of a test compound at which half the enzyme is inhibited (50% signal intensity of the fluorescent light) is reported as the […].
(§2) Recombinant MMP-1 (from R&D Systems, 901-MP) is chemically activated in accordance with the manufacturer's instructions using APMA. 1 μl of the test compound to be analysed (as a solution in DMSO, suitable concentrations, for example, 1 nM to 30 μM) is pipetted into 24 μl of activated enzyme (final concentration, for example, 2 nM) in reaction buffer (50 mM Tris/HCl pH 7.5, 10 mM CaCl2, 150 mM NaCl, 0.05% Brij®-35) in a white 384-hole microtiter plate (MTP). The enzymatic reaction is started by adding the intramolecularly quenched Mca-Pro-Leu-Gly-Leu-Dpa(Dnp)-Ala-Arg-NH2 substrate (final concentration, for example, 10 μM; R&D Systems, ES-001), so as to result in a total test volume of 50 μl. The course of the MMP-1 reaction is measured by measuring the fluorescence intensity (excitation 320 nm, emission 410 nm) over a suitable period of time (for example over 120 min at a temperature of 32° C.).

MMP-3 = target: T2, MMP-3 (Homo sapiens, UniProt P08254); assay: In vitro MMP-3 inhibition test; assay type: biochemical
T2 construct: purchased R&D Systems 513-MP
T2 sequence (P08254 100-477): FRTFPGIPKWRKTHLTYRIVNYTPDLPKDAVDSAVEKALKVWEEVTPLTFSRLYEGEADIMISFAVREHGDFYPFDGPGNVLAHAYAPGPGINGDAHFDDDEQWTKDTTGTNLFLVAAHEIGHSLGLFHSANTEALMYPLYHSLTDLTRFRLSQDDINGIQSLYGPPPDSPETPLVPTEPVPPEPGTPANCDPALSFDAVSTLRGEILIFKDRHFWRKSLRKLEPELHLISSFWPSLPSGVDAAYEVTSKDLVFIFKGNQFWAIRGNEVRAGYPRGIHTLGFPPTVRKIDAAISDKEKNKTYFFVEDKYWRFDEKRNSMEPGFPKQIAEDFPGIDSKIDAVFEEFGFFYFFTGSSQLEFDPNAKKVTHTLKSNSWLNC
Excerpt: as §1
as §2, with “MMP-3” for “MMP-1”, “513-MP)” for “901-MP)”, “Mca-Arg-Pro-Lys-Pro-Val-Glu-Nval-Trp-Arg-Lys(Dnp)-NH2” for “Mca-Pro-Leu-Gly-Leu-Dpa(Dnp)-Ala-Arg-NH2”, “ES-002),” for “ES-001),”

mouse MMP-7 = target: T3, mouse MMP-7 (Mus musculus, UniProt Q10738); assay: In vitro mouse MMP-7 inhibition test; assay type: biochemical
T3 construct: purchased R&D Systems 2967-MP
T3 sequence (Q10738 95-264): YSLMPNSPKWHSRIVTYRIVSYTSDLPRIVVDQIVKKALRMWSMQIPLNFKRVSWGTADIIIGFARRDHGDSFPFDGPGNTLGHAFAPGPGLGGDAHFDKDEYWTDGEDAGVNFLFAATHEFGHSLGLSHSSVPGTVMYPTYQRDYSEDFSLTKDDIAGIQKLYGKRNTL
Excerpt: as §1
Recombinant mouse MMP-7 (from R&D Systems, 2967-MP) is chemically activated in accordance with the manufacturer's instructions using APMA. 1 μl of the test compound to be analysed (as a solution in DMSO, suitable concentrations, for example, 1 nM to 30 μM) is pipetted into 24 μl of activated enzyme (final concentration, for example, 0.5 nM) in reaction buffer (50 mM Tris/HCl pH 7.5, 10 mM CaCl2, 150 mM NaCl, 0.05% Brij®-35) in a white 384-hole microtiter plate (MTP). The enzymatic reaction is started by adding the intramolecularly quenched Mca-Lys-Pro-Leu-Gly-Leu-Dpa(Dnp)-Ala-Arg-NH2 substrate (final concentration, for example, 5 μM; R&D Systems, ES-010), so as to result in a total test volume of 50 μl. The course of the MMP-7 reaction is measured by measuring the fluorescence intensity (excitation 320 nm, emission 410 nm) over a suitable period of time (for example over 120 min at a temperature of 32° C.).

mouse MMP-8 = target: T4, mouse MMP-8 (Mus musculus, UniProt O70138); assay: In vitro mouse MMP-8 inhibition test; assay type: biochemical
T4 construct: purchased R&D Systems 2904-MP
T4 sequence (O70138 101-465): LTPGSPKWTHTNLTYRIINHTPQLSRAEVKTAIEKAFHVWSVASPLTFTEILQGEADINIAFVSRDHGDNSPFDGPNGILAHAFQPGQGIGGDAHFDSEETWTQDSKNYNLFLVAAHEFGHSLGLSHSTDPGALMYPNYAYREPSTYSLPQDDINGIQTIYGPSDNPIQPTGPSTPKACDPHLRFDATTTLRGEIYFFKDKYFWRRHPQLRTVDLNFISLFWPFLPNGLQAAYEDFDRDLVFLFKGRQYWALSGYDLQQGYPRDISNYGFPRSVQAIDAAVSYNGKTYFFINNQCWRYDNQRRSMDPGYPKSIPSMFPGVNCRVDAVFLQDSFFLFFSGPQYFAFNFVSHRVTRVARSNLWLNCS

mouse MMP-9 = target: T5, mouse MMP-9 (Mus musculus, UniProt P41245); assay: In vitro mouse MMP-9 inhibition test; assay type: biochemical
T5 construct: purchased R&D Systems 909-MP
T5 sequence (P41245 108-730): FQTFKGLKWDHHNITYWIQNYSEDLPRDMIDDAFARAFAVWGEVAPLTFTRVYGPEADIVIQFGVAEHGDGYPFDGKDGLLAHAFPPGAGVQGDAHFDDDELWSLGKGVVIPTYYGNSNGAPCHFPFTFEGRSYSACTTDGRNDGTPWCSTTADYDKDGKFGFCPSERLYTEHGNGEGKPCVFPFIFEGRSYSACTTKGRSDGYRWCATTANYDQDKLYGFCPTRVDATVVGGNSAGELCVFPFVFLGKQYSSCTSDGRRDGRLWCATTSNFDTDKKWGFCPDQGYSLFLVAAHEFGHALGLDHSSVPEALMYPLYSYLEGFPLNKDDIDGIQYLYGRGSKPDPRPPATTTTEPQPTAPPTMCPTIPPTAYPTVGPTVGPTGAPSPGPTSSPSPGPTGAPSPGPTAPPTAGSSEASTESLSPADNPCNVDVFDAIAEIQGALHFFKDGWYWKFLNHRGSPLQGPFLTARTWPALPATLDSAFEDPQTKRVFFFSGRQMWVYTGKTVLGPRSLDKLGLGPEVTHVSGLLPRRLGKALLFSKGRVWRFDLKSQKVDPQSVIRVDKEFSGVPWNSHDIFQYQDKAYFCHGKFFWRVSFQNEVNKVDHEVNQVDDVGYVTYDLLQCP
Excerpt: as §1
as §2, with “Recombinant mouse MMP-9” for “Recombinant MMP-1”, “Systems, 909-MP)” for “Systems, 901-MP)”, “example, 0.1” for “example, 2”, “example, 5” for “example, 10”, “the MMP-9” for “the MMP-1”

[1] = Determination of solubility in PBS buffer pH 6.5; conditions: PBS buffer pH 6.5, 1% DMSO, room temperature; for solubility at 24 h: PBS buffer, pH 6.5, aqueous buffer, kinetic from dmso stock
Procedure: The test substance is dissolved in DMSO. An aliquot is taken from this solution and introduced into PBS buffer pH 6.5 (DMSO content: 1%). This solution/suspension is agitated at room temperature for 24 h. After ultracentrifugation at 114000 g for 30 min, the supernatant is removed, diluted with acetonitrile/water 8:2 and analysed by LC-MSMS. Quantification is effected by means of a five-point calibration curve of the test compound in DMSO.

`O=C(O)[C@H]1[C@H](Cn2nnc3ccccc3c2=O)CC[C@@H]1C(=O)c1ccc(OCC2CCOCC2)cc1` (stereo in doubt) [Example 1, (+/−)-(1RS,2SR,5RS)-2-[(4-Oxo-1,2,3-benzotriazin-3(4H)-yl)methyl]-5-[4-(tetrahydro-2H-pyran-4-ylmethoxy)benzoyl]cyclopentanecarboxylic acid] showed an IC50 (MMP-1) of 26000 nM, an IC50 (MMP-3) of 1100 nM and an IC50 (mouse MMP-7) of 85 nM. For the same compound, the IC50 (mouse MMP-8) was 40 nM, the IC50 (mouse MMP-9) was 560 nM and the solubility at 24 h [1] was 52.2 µg/mL (≈ 106 µM).

In the case of `O=C(O)[C@@H]1[C@@H](Cn2nnc3ccc(C(F)(F)F)cc3c2=O)CC[C@H]1C(=O)c1ccc(SCC2CCOCC2)cc1` (single isomer, unassigned) [Example 15, (+)-(1RS,2SR,5RS)-2-{[4-Oxo-6-(trifluoromethyl)-1,2,3-benzotriazin-3(4H)-yl]methyl}-5-{4-[(tetrahydro-2H-pyran-4-ylmethyl)sulphanyl]benzoyl}cyclopentanecarboxylic acid], the IC50 (MMP-1) is reported as 11000 nM and the IC50 (MMP-3) is reported as 95 nM.

For `O=C(O)[C@H]1[C@H](Cn2nnc3ccc(C(F)(F)F)cc3c2=O)CC[C@@H]1C(=O)c1ccc(OCCC2CCOCC2)cc1` (stereo in doubt) [Example 10, (+/−)-(1RS ,2S R,5RS)-2-{[4-Oxo-6-(trifluoromethyl)-1,2,3-benzotriazin-3(4H)-yl]methyl}-5-{4-[2-(tetrahydro-2H-pyran-4-yl)ethoxy]benzoyl}cyclopentanecarboxylic acid], the IC50 (MMP-1) was 8800 nM, the IC50 (MMP-3) was 120 nM and the IC50 (mouse MMP-7) was 130 nM. For the same compound, the IC50 (mouse MMP-8) was 14 nM, the IC50 (mouse MMP-9) was 930 nM and the solubility at 24 h [1] was 33.4 µg/mL (≈ 58.2 µM).

For `O=C(O)[C@@H]1[C@@H](Cn2nnc3ccccc3c2=O)CC[C@H]1C(=O)c1ccc(OCC2CCOCC2)cc1` (stereo in doubt) [Example 2, (+)-(1RS,2SR,5RS)-2-[(4-Oxo-1,2,3-benzotriazin-3(4H)-yl)methyl]-5-[4-(tetrahydro-2H-pyran-4-ylmethoxy)benzoyl]cyclopentanecarboxylic acid], the IC50 (MMP-1) was 10000 nM, the IC50 (MMP-3) was 710 nM and the IC50 (mouse MMP-7) was 52 nM. For the same compound, the IC50 (mouse MMP-8) was 21 nM and the IC50 (mouse MMP-9) was 280 nM.

For `O=C(O)[C@@H]1[C@@H](Cn2nnc3ccccc3c2=O)CC[C@H]1C(=O)c1ccc(OCCC2CCOCC2)cc1` (single isomer, unassigned) [Example 5, (+)-(1RS,2SR,5RS)-2-[(4-Oxo-1,2,3-benzotriazin-3(4H)-yl)methyl]-5-{4-[2-(tetrahydro-2H-pyran-4-yl)ethoxy]benzoyl}cyclopentanecarboxylic acid], the IC50 (MMP-1) was greater than 40000 nM, the IC50 (MMP-3) was 360 nM and the IC50 (mouse MMP-7) was 130 nM. The IC50 (mouse MMP-8) was 54 nM, the IC50 (mouse MMP-9) was 210 nM and the solubility at 24 h [1] was 338 µg/mL (≈ 669 µM).

For `O=C(O)[C@H]1[C@H](Cn2nnc3ccccc3c2=O)CC[C@@H]1C(=O)c1ccc(OCCC2CCOCC2)cc1` (stereo in doubt) [Example 4, (+/−)-(1RS,2SR,5RS)-2-[(4-Oxo-1,2,3-benzotriazin-3(4H)-yl)methyl]-5-{4-[2-(tetrahydro-2H-pyran-4-yl)ethoxy]benzoyl}cyclopentanecarboxylic acid], the IC50 (MMP-1) was greater than 40000 nM, the IC50 (mouse MMP-7) was 1400 nM and the IC50 (mouse MMP-8) was 370 nM. The IC50 (mouse MMP-9) was 1500 nM and the solubility at 24 h [1] was 51.4 µg/mL (≈ 102 µM).

In the case of `Cc1ccc2nnn(C[C@@H]3CC[C@H](C(=O)c4ccc(OCCC5CCOCC5)cc4)[C@H]3C(=O)O)c(=O)c2c1` (racemic) [Example 19, (+/−)-(1RS,2SR,5RS)-2-[(6-Methyl-4-oxo-1,2,3-benzotriazin-3(4H)-yl)methyl]-5-{4-[2-(letrahydro-2H-pyran-4-yl)ethoxy]benzoyl}cyclopentanecarboxylic acid], the IC50 (MMP-1) is reported as greater than 40000 nM, the IC50 (MMP-3) is reported as 1400 nM and the IC50 (mouse MMP-7) is reported as 630 nM. The IC50 (mouse MMP-8) was 150 nM, the IC50 (mouse MMP-9) was 2200 nM and the solubility at 24 h [1] was 17 µg/mL (≈ 32.7 µM).

With `O=C(O)[C@@H]1[C@@H](Cn2nnc3ccc(C(F)(F)F)cc3c2=O)CC[C@H]1C(=O)c1ccc(OCCC2CCOCC2)cc1` (single isomer, unassigned) [Example 11, (+)-(1RS,2SR,5RS)-2-{[4-Oxo-6-(trifluoromethyl)-1,2,3-benzotriazin-3(4H)-yl]methyl}-5-{4-[2-(tetrahydro-2H-pyran-4-yl)ethoxy]benzoyl}cyclopentanecarboxylic acid] the IC50 (MMP-1) was 27000 nM, the IC50 (MMP-3) was 260 nM and the IC50 (mouse MMP-7) was 210 nM. For the same compound, the IC50 (mouse MMP-8) was 34 nM, the IC50 (mouse MMP-9) was 1900 nM and the solubility at 24 h [1] was 210 µg/mL (≈ 366 µM).

`O=C(O)[C@H]1[C@H](Cn2nnc3ccc(C(F)(F)F)cc3c2=O)CC[C@@H]1C(=O)c1ccc(OCC2CCOCC2)cc1` (racemic) [Example 7, (+/−)-(1RS,2SR,5RS)-2-{[4-Oxo-6-(trifluoromethyl)-1,2,3-benzotriazin-3(4H)-yl]methyl}-5-[4-(tetrahydro-2H-pyran-4-ylmethoxy)benzoyl]cyclopentanecarboxylic acid] showed an IC50 (MMP-1) of 6500 nM and an IC50 (MMP-3) of 190 nM.

Compound “(+)-(1RS,2SR,5RS)-2-{[4-Oxo-6-(trifluoromethyl)-1,2,3-benzotriazin-3(4H)-yl]methyl}-5-[4-(tetra-hydro-2H-pyran-4-ylmethoxy)benzoyl]cyclopentanecarboxylic acid [Example 8]” has an IC50 (MMP-1) of 1800 nM, an IC50 (MMP-3) of 100 nM and a Solubility ([1]; 24 h) of 4.5 µg/mL.

With `Cc1ccc2nnn(C[C@H]3CC[C@@H](C(=O)c4ccc(OCCC5CCOCC5)cc4)[C@@H]3C(=O)O)c(=O)c2c1` (single isomer, unassigned) [Example 20, (+)-(1RS,2SR,5RS)-2-[(6-Methyl-4-oxo-1,2,3-benzotriazin-3(4H)-yl)methyl]-5-{4-[2-(tetrahydro-2H-pyran-4-yl)ethoxy]benzoyl}cyclopentanecarboxylic acid] the IC50 (MMP-1) was greater than 40000 nM, the IC50 (MMP-3) was 440 nM and the IC50 (mouse MMP-7) was 200 nM. For the same compound, the IC50 (mouse MMP-8) was 46 nM, the IC50 (mouse MMP-9) was 800 nM and the solubility at 24 h [1] was 425 µg/mL (≈ 818 µM).
